{
  "source": "paper PMC6934184",
  "about": "“Selective DNA-PKcs inhibition extends the therapeutic index of localized radiotherapy and chemotherapy” (The Journal of Clinical Investigation, 2019)",
  "target": "T1, FGFR3 K650M (Homo sapiens, UniProt P22607, K650M)",
  "T1 construct": "purchased Thermo Fisher Scientific (Life Technologies) SelectScreen",
  "T1 sequence (P22607 23-806 K650M)": "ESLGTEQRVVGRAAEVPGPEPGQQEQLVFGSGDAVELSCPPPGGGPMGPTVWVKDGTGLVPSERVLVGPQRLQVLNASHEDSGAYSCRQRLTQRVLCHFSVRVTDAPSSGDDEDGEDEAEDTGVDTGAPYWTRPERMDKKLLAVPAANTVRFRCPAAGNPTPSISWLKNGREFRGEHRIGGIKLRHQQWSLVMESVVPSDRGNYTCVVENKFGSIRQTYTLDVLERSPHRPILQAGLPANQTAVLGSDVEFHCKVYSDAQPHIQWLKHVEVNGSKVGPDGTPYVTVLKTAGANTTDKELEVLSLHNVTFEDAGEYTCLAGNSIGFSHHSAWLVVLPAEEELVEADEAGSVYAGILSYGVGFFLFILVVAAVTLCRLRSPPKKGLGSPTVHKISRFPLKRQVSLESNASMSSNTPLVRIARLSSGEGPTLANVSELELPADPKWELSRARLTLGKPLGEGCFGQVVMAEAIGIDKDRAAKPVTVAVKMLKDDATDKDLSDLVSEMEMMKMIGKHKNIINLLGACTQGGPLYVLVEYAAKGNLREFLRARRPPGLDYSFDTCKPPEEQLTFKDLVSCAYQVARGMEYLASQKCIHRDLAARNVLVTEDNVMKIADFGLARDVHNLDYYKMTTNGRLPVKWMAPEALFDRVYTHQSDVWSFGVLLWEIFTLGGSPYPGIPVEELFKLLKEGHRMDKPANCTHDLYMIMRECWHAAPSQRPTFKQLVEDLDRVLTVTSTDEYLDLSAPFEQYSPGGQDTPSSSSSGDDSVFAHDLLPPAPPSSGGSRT",
  "assay": "SelectScreen LanthaScreen",
  "type": "binding",
  "conditions": "read-out: % displacement",
  "method_in_brief": "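NU5455 was profiled across the SelectScreen Broad panel of kinase activity and binding assays. Z'LYTE reactions such as CSF1R ran at apparent Km ATP, while the Adapta CAMK1 assay used ATP listed as 10. Values are given as percent.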",
  "data": [
    {"compound": "CN(C(=O)CN1CCOCC1)c1ccc2sc3c(-c4cccc5c(=O)cc(N6CC7CCC(C6)O7)oc45)cccc3c2c1", "note": "[NU5455]", "values": [
      {"measurement": "inhibition at 1 µM", "result": 16.5, "unit": "%"}
    ]}
  ]
}
